Laboratory results taken from paper PMC10056443, “Derivatives of Amaryllidaceae Alkaloid Ambelline as Selective Inhibitors of Hepatic Stage of Plasmodium berghei Infection In Vitro” (Pharmaceutics, 2023).
Where two headings read alike, the source gives them in different places.

Experiments:
HepG2 cells = experiment: Cytotoxicity assessment in vitro (MTT assay); type: cell-based
Protocol: (§1) HepG2 cells of human hepatocellular carcinoma (ATCC HB-8065; passage 20–25), purchased from Health Protection Agency Culture Collections (ECACC, Salisbury, UK), were cultured in Minimum Essential Medium Eagle supplemented with 10% v/v fetal bovine serum and 1% v/v L-glutamine solution (Sigma-Aldrich, St. Louis, MO, USA) at 37 °C in a humidified atmosphere containing 5% CO2. For passaging, the cells were treated with trypsin/EDTA (Sigma-Aldrich, St. Louis, MO, USA) at 37 °C and then harvested. For the cytotoxicity evaluation, the cells treated with the test substances were used, while untreated HepG2 cells served as a control group. The cells were seeded in a 96-well plate at a density of 1 × 10^4 cells per well and incubated for 24 h. All tested compounds were dissolved in DMSO to prepare 10 mM stock solutions and diluted to the desired concentration just before the cell treatment. Cytotoxicity of all studied derivatives was screened at 10 μM concentration, and all samples were measured in triplicates. Positive and negative controls were also included. Plates were incubated for 24 h in a humidified atmosphere containing 5% CO2 at 37 °C. After the incubation, a solution of thiazolyl blue tetrazolium bromide (Sigma-Aldrich, St. Louis, MO, USA) in RPMI 1640 medium without phenol red (BioTech, Prague, Czech Republic) was added and incubated for 3 h in a humidified atmosphere containing 5% CO2 at 37 °C. Afterwards, formazan crystals were dissolved in DMSO, and the absorbance of samples was recorded at 570 nm (Synergy Neo2 Multi-Mode Reader NEO2SMALPHAB; BioTek, Winooski, VT, USA).

[1] = Cytotoxicity assessment in vitro (MTT assay); type: cell-based; conditions: human
Protocol: as §1

[2] = test system: hepatic stage of P. berghei; experiment: In vitro activity against P. berghei hepatic stages (luciferase-expressing sporozoites in Huh-7 cells, bioluminescence); type: cell-based, Plasmodium berghei; design: INFECTION (IC50 determination): unit not given here; conditions: for activity at 1 µM / activity at 10 µM / IC50: Plasmodium berghei; for activity at 1 µM / activity at 10 µM: Huh-7, 48 h, read-out: INFECTION Ø screening; for activity at 1 µM / activity at 10 µM / INFECTION (IC50 determination): DMSO = 100
Protocol: Activity against the hepatic stage of P. berghei infection was assessed using the human hepatoma cell line Huh-7 (deposited at the Japanese Collection of Research Bioresources under JCRB0403). The protocol was previously comprehensively described by Prudêncio et al. and by Ploemen et al.. […] Cells were seeded in 96-well plates at a density of 1 × 10^4 cells per well in 100 µL of culture medium and incubated at 37 °C with 5% CO2 for approximately 18 h. […] The culture medium was substituted by infection medium with diluted compounds 1 hour in advance of infection. Luciferase-expressing P. berghei sporozoites (PbA-LuciGFPcon spz) were freshly obtained through the dissection of salivary glands from infected female Anopheles stephensi mosquitoes. Sporozoites were added to the cells at 1:1 ratio, i.e., 1 × 10^4 sporozoites were added per well, and then subjected to centrifugation at 1800× g for 5 min. The plate was then incubated for 46 h at 37 °C with 5% CO2, at which time Huh-7 cell confluency was indirectly assessed by the alamarBlue assay (Invitrogen, Waltham, MA, USA), as reported in the manufacturer’s protocol. Parasite load was assessed 48 h post-infection by a bioluminescence assay, as reported by the manufacturer (Biotium, Fremont, CA, USA). GraphPad Prism 8 (GraphPad Software, Inc., La Jolla, CA, USA) was used to obtain IC50 values using nonlinear regression analysis to fit the dose-response curves normalized results.

Huh-7 cell line = experiment: Huh-7 cell confluency by alamarBlue assay during hepatic-stage test; type: cell-based; conditions: for CELL CONFLUENCY (IC50 determination) / CELL CONFLUENCY Ø screening: human, 46 h, pH 7
Protocol: Activity against the hepatic stage of P. berghei infection was assessed using the human hepatoma cell line Huh-7 (deposited at the Japanese Collection of Research Bioresources under JCRB0403). The protocol was previously comprehensively described by Prudêncio et al. and by Ploemen et al.. Briefly, cell culture medium consisted of 1640 RPMI medium supplemented with 10% v/v fetal calf serum, 1% v/v L-glutamine, 1% v/v nonessential amino acids, 1% v/v penicillin/streptomycin, and 10 mM HEPES, pH 7. Cells were seeded in 96-well plates at a density of 1 × 10^4 cells per well in 100 µL of culture medium and incubated at 37 °C with 5% CO2 for approximately 18 h. […] The culture medium was substituted by infection medium with diluted compounds 1 hour in advance of infection. Luciferase-expressing P. berghei sporozoites (PbA-LuciGFPcon spz) were freshly obtained through the dissection of salivary glands from infected female Anopheles stephensi mosquitoes. Sporozoites were added to the cells at 1:1 ratio, i.e., 1 × 10^4 sporozoites were added per well, and then subjected to centrifugation at 1800× g for 5 min. The plate was then incubated for 46 h at 37 °C with 5% CO2, at which time Huh-7 cell confluency was indirectly assessed by the alamarBlue assay (Invitrogen, Waltham, MA, USA), as reported in the manufacturer’s protocol. Parasite load was assessed 48 h post-infection by a bioluminescence assay, as reported by the manufacturer (Biotium, Fremont, CA, USA). GraphPad Prism 8 (GraphPad Software, Inc., La Jolla, CA, USA) was used to obtain IC50 values using nonlinear regression analysis to fit the dose-response curves normalized results.

[3] = test system: P. falciparum NF54 ring-stage synchronized cultures; experiment: In vitro activity against P. falciparum blood stages (flow cytometry, SYBR green I); type: cell-based, Plasmodium falciparum; conditions: Control = 7.76333, 48 h
Protocol: Activity against the blood stage of P. falciparum infection was assessed by flow cytometry analysis following the incubation of either test compounds or the drug vehicle (DMSO) with ring-stage synchronized parasite cultures, as previously described. Stock solutions of the test compounds, as well as of the positive control compound chloroquine, were prepared in DMSO and diluted to test concentrations in complete malaria culture medium (CMCM), i.e., 1640 RPMI medium supplemented with 25 mM HEPES, 2.4 mM L-glutamine, 50 µg/mL gentamicin, 0.5% w/v Albumax, 11 mM glucose, 1.47 mM hypoxanthine, and 37.3 mM NaHCO3. Samples at tested concentration were then incubated with ring-stage synchronized cultures of P. falciparum NF54 at 2.5% hematocrit and at approximately 1% parasitemia in 96-well plates at 37 °C in a 5% CO2 and 5% O2 atmosphere. Forty-eight hours post incubation, parasite load was assessed by flow cytometry, upon staining with the DNA-specific dye SYBR green I. Approximately 100,000 events were analyzed in each flow cytometry measurement.

[4] = Huh-7, replicate 1, unit (Table 1: µM), read-out: Antiplasmodial activity - IC50 determination, 1. measurement
[5] = Huh-7, replicate 2, unit (Table 1: µM), read-out: Antiplasmodial activity - IC50 determination, 2. measurement
[6] = hepatic stage, Huh-7 cells, parasite load 48 h post-infection, read-out: IC50 P. berghei
[7] = Huh-7, replicate 3, unit (Table 1: µM), read-out: Antiplasmodial activity - IC50 determination, 3. measurement

Row | Compound | 1. screening of cytotoxic potential, HepG2 cell line (HepG2 cells; human, 24 h, 10 µM) | 2. screening of cytotoxic potential, HepG2 cell line (HepG2 cells; human, 24 h, 10 µM) | 3. screening of cytotoxic potential, HepG2 cell line (HepG2 cells; human, 24 h, 10 µM) | Ø screening, HepG2 (sheet Graphs) (HepG2 cells; human, 24 h, 10 µM) | viability at 24 h, 10 µM [1] [%] | activity at 1 µM [2] [%] | activity at 10 µM [2] [%] | IC50 [2, 4] [µM] | IC50 [2, 5] [µM] | IC50 [2, 6] [µM] | CELL CONFLUENCY Ø screening (Huh-7 cell line; 1 µM) | CELL CONFLUENCY Ø screening (Huh-7 cell line; 10 µM) | also measured
1 | COc1cc(C(=O)O[C@@H]2CN3Cc4c(cc5c(c4OC)OCO5)[C@@]24C=C[C@H](OC)C[C@@H]34)cc(OC)c1OC [28n, 11-O-(3,4,5-Trimethoxybenzoyl)ambelline] | 52.2 | 49.89 | 54.09 | 52.06 | 52 ± 2 | 2.38 | 0.82 | 0.047 | 0.047 | 0.047 | 69.5 | 68.02 | IC50 ([2]; Huh-7, abstract, read-out: IC50 against hepatic stage of Plasmodium infection): 0.047 µM; IC50 ([2]; Huh-7, mean, unit (Table 1: µM), read-out: Antiplasmodial activity - Ø IC50): 0.047 µM; INFECTION (IC50 determination) ([2]; at 0.001 µM): 132.557; INFECTION (IC50 determination) ([2]; at 0.01 µM): 115.469; INFECTION (IC50 determination) ([2]; at 0.04 µM): 56.6784; INFECTION (IC50 determination) ([2]; at 0.07 µM): 26.9184; INFECTION (IC50 determination) ([2]; at 0.1 µM): 17.5104; INFECTION (IC50 determination) ([2]; at 0.5 µM): 2.9184; Huh-7 cell viability (Huh-7 cell line): cell viability was not affected at antiplasmodial-active concentrations; CELL CONFLUENCY (IC50 determination) (Huh-7 cell line; 0.001 µM): 120.661; CELL CONFLUENCY (IC50 determination) (Huh-7 cell line; 0.01 µM): 126.131; CELL CONFLUENCY (IC50 determination) (Huh-7 cell line; 0.04 µM): 117.957; CELL CONFLUENCY (IC50 determination) (Huh-7 cell line; 0.07 µM): 115.634; CELL CONFLUENCY (IC50 determination) (Huh-7 cell line; 0.1 µM): 118.616; CELL CONFLUENCY (IC50 determination) (Huh-7 cell line; 0.5 µM): 106.144
2 | COc1c2c(cc3c1OCO3)[C@]13C=C[C@H](OC)C[C@H]1N(C2)C[C@H]3OC(=O)c1cccc(C)c1 [28f, 11-O-(3-Methylbenzoyl)ambelline] | 76.64 | 74.3 | 74.27 | 75.07 | 75 ± 1 | 15.1 | 0.306 | 0.185 | 0.41 | 0.317 ± 0.118 | 118 | 93.35 | IC50 [2, 7]: 0.357 µM
3 | COc1cccc2c1C(=O)c1c(O)c3c(c(O)c1C2=O)C[C@@](O)(C(=O)CO)C[C@@H]3O[C@H]1C[C@H](N)[C@H](O)[C@H](C)O1 [Doxorubicine, reference compound] | – | – | – | – | – | – | – | – | – | – | – | – | Ø screening, HepG2 (sheet Graphs) (HepG2 cells; c = 10 μM, DMSO = 100, in %): 65.91; 1. screening of cytotoxic potential, HepG2 cell line (HepG2 cells; c = 10 μM, replicate 1, in %): 62.5; 2. screening of cytotoxic potential, HepG2 cell line (HepG2 cells; c = 10 μM, replicate 2, in %): 75.09; 3. screening of cytotoxic potential, HepG2 cell line (HepG2 cells; c = 10 μM, replicate 3, in %): 60.13; viability at 24 h, 10 µM ([1]; HepG2 cells, c = 10 µM, 24 h, MTT, read-out: HepG2 % of cell viability compared to non-treated control (100%)): 66 ± 8%
4 | CCOc1cc(OCC)cc(C(=O)O[C@@H]2CN3Cc4c(cc5c(c4OC)OCO5)[C@@]24C=C[C@H](OC)C[C@@H]34)c1 [28o, 11-O-(3,5-Diethoxybenzoyl)ambelline] | 65.61 | 51.07 | 51.54 | 56.07 | 56 ± 8 | 10.9 | 0.0467 | 0.307 | 0.326 | 0.316 ± 0.013 | 97.15 | 52.09 | –
5 | COc1ccc(C(=O)O[C@@H]2CN3Cc4c(cc5c(c4OC)OCO5)[C@@]24C=C[C@H](OC)C[C@@H]34)cc1OC [28l, 11-O-(3,4-Dimethoxybenzoyl)ambelline] | 106.14 | 89.55 | 102.39 | 99.36 | 99 ± 9 | 1.65 | 0.301 | 0.16 | 0.135 | 0.147 ± 0.018 | 85.82 | 70.05 | –
6 | COc1ccccc1C(=O)O[C@@H]1CN2Cc3c(cc4c(c3OC)OCO4)[C@@]13C=C[C@H](OC)C[C@@H]23 [28i, 11-O-(2-Methoxybenzoyl)ambelline] | 85.49 | 83.85 | 87.77 | 85.7 | 86 ± 2 | 60.6 | 1.65 | 1.53 | 2.98 | 2.4 ± 0.77 | 140.5 | 135.7 | IC50 [2, 7]: 2.7 µM
7 | CCN(CC)CCCC(C)Nc1ccnc2cc(Cl)ccc12 (stereo not shown) [CQ, chloroquine, reference compound] | – | – | – | – | – | – | – | – | – | – | – | – | Ø screening, blood stage parasite load ([3]; at 10 nM): 8.54; Ø screening, blood stage parasite load ([3]; at 500 nM): 2.057; Ø screening, blood stage parasite load ([3]; at 100 nm): 2.187
